Assay results reported in patent US20260217863A1, “ANTIBODY OR PEPTIDE BINDING SPECIFICALLY TO RNASE A, IMMUNOASSAY DEVICE AND METHOD FOR DETECTING RNASE A, AND METHOD FOR COLLECTING RNASE A” (UIF (University Industry Foundation), Yonsei University, priority 2022, published 2026).

Assays:
[1] = target: T1, RNase A (Bos taurus, UniProt P61823); assay: RNase activity test kit, modified Taq-man RNA probe analysis (ab273299); format: biochemical; set-up: purchased Abcam ab273299; details: inhibitor 1 μM; after 60 minutes; positive control (no inhibitor) = 100%
T1 sequence (P61823 27-150): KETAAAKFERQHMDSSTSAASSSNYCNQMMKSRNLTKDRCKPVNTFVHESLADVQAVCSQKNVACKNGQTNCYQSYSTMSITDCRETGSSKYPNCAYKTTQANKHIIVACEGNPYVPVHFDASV
Experimental: The activity of RNase A, which degrades RNA, was evaluated using specially designed RNA probes. This RNase A analysis was performed using a commercial RNase activity test kit based on a modified Taq-man probe analysis (ab273299) from Abcam (Cambridge, UK). To compare inhibitory activity, three synthetic peptides (peptide-1, peptide-2, peptide-3) and three expressed Fv-antibodies (Fv-1, Fv-2, and Fv-3) were compared using two types of commercially available RNase inhibitors from Biofact™ (Daejeon, South Korea) and two types of RNaseOUT™ from Thermofisher (USA). The probes for the RNase inhibition analysis contained RNA probes with fluorescent dyes and quenching materials at each end of the RNA sequence. […] To estimate the RNase A inhibitory activity by the three synthesized peptides, each peptide was treated at a concentration of 1 μM using the analysis kit, and RNase activity was measured. The positive control was prepared to have an RNase reaction without an inhibitor, and the negative control was prepared to have an RNase reaction without the RNA probe. […] The RNase A inhibitory activity of the three synthesized peptides was analyzed after treating each peptide at a concentration range of 100 μM to 1 μM in the assay kit. […] The RNase A inhibitory activity of the three expressed Fv-antibodies was analyzed after treating each peptide at a concentration range of 100 μM to 1 μM in the analysis kit.
The activity of RNase A, which degrades RNA, was evaluated using specially designed RNA probes. This RNase A analysis was performed using a commercial RNase activity test kit based on a modified Taq-man probe analysis (ab273299) from Abcam (Cambridge, UK). For the comparison of inhibitory activity, three synthetic peptides (Peptide-1, Peptide-2, Peptide-3) and three expressed Fv-antibodies (Fv-1, Fv-2, and Fv-3) were compared using two types of commercially available RNase inhibitors from Biofact™ (Daejeon, South Korea) and two types of RNaseOUT™ from Thermofisher (USA). The probes for the RNase inhibition analysis contain RNA probes with fluorescent dyes and fluorescent quenchers at each end of the RNA nucleotide sequence.
To estimate the RNase A inhibitory activity of the three synthesized peptides, each peptide was treated at a concentration of 1 μM using an assay kit, and the RNase activity was evaluated. The positive control was prepared to have an RNase reaction without the inhibitor, while the negative control was prepared to have an RNase reaction without the RNA probe.
The RNase A inhibitory activity of the three synthesized peptides was analyzed after treating each peptide at a concentration range of 100 μM to 1 μM with the RNase A from the assay kit.

[2] = target: T1, RNase A; assay: RNA cleavage assay with total RNA from HeLa cells, agarose gel imaging; format: biochemical, bovine; set-up: Ribonuclease A (Type II-A) from bovine pancreas; purchased Sigma-Aldrich Korea; host or cells: bovine pancreas; details: RNase 0.7 μg/ml, agarose gel image analysis, read-out: IC50 for RNase A activity inhibition
Experimental: The analysis of RNase inhibitory activity of Fv antibodies and synthetic peptides was performed using RNA samples extracted from HeLa cells as follows: (1) Mixing the RNA sample extracted from HeLa cells (600 ng) with 87.5 nM-5.6 μM under conditions of 37° C. for 30 minutes, (2) Electrophoresis on a 1% agarose gel at 90 V for 40 minutes. The estimation of RNase inhibitory activity was carried out by gel imaging of the cleaved RNA using a ChemiDoc XPS (Bio-Rad, CA, USA).
(§1) Using RNA samples extracted from HeLa cells, the RNase inhibitory activity of the synthesized peptides was estimated. The RNase inhibitory activity was assessed using agarose gel imaging of the cleaved RNA. To optimize the RNase concentration for the RNase inhibition assay, total RNA was treated with RNase A (600 ng), with RNase A concentrations ranging from 5.7 ng/ml to 3.6 μg/ml, and the cleaved RNA bands were observed after treatment with ETBR (ethidium bromide). […] The RNase concentration for inhibition analysis was determined to be 0.7 μg/ml, with RNase concentrations above 3.6 μg/ml. The inhibition analysis was performed by mixing total RNA from HeLa cells with RNase (0.7 μg/ml) and Fv-antibody at a concentration of 10 μM, resulting in the observation that the entire RNA was completely cleaved into small RNA bands in the absence of the Fv-antibody. […] The optimal concentration of the Fv-antibody for RNase inhibition was determined by the cleavage reaction with total RNA in the concentration range of 87.5 nM to 5.6 μM for Fv-antibodies (Fv-1, Fv-2, Fv-3).
The analysis of RNase inhibitory activity of Fv antibodies and synthetic peptides was performed using RNA samples extracted from HeLa cells as follows: (1) A mixture of RNA samples extracted from HeLa cells (600 ng) was prepared at concentrations of 87.5 nM-5.6 μM and incubated at 37° C. for 30 minutes; (2) Electrophoresis was conducted in a 1% agarose gel under 90 V for 40 minutes. The estimation of RNase inhibitory activity was carried out by gel imaging of the cleaved RNA using a ChemiDoc XPS (Bio-Rad, CA, USA).
as §1, with “the” for “the concentration”

Substance | relative inhibition level / reduction of RNase A activity [1] | IC50 [2]
Inhibitor-2 [reference compound] | 27.2% | 381 nM
Inhibitor-1 [reference compound] | 35.8% | 257 nM
